Reference: patent publication US20050158412A1, “Type II diabetes” (priority 2004, published 2005)

Target: T1, Aldose Reductase (Rattus norvegicus, UniProt P07943)
T1 construct: Aldose Reductase was isolated from Rat lens; from tissue; host or cells: rat lens
Assay: Aldose Reductase enzyme assay
Assay type: biochemical
Conditions: Wistar rat lens enzyme
Procedure: Experiments were conducted to test the effects of Morinda citrifolia products on Aldose Reductase. Aldose Reductase is an enzyme that is highly expressed in the eye (lens) of diabetic patients. High expression of Aldose Reductase may lead to blindness. Quantitation of Aldose Redutase activity was achieved by utilizing DL-Glyceraldehyde as a substrate. DL-Glyceraldehyde reacts with NADPH to form NADP+. A spectrophotometer was utilized to quantitiate levels of NADPH. Aldose Reductase was isolated from Rat lens. Quercertin was utilized as a reference compound. Methods employed in this study were adapted from the scientific literature to maximize reliability and reproducibility. […] Biochemical assay results are presented as the percent inhibition of specific binding or activity throughout the report. All other results are expressed in terms of that assay's quantitation method. For primary assays, only the lowest concentration with a significant response judged by the assays' criteria, is shown in this summary.

For O=c1c(O)c(-c2ccc(O)c(O)c2)oc2cc(O)cc(O)c12 [Quercetin], the “% INH. Aldose Reductase” value (conc. 1%) was 77% and the “% INH. Aldose Reductase” value (conc. 5%) was 77%.
